From ChEMBL document CHEMBL5608224, “Novel KRAS Inhibitors for Treating Non-small Cell Lung Cancer” (ACS Med Chem Lett, 2024) come the findings set out here.

A word on the IC50: it is the concentration that inhibits the measured activity by half.

Structures are written as SMILES.

The nature of the test: Inhibition of recombinant GMPPNP-loaded KRAS-G12C mutant (unknown origin) /recombinant GST-tagged RAF RBD (unknown origin) complex assessed as disruption preincubated with KRAS G12C for 20 mins followed by RAF addition and measured after 20 mins by HTRF assay. The arrangement: species or system Homo sapiens. On the technique in general: In TR-FRET formats the signal depends on donor and acceptor labels being close together.

As to `C#Cc1cccc2cccc(-c3ccc4c(N(C)[C@@H]5CCN(C(=O)/C(F)=C/c6ccccn6)C5)nc(OC[C@@]56CCCN5C[C@H](F)C6)nc4c3F)c12`, the half-maximal inhibitory concentration (IC50) worked out at 20 nM. The value for `C#Cc1c(F)ccc2cc(O)cc(-c3ccc4c(N5CCN(C(=O)/C(F)=C/c6nccs6)CC5)nc(OC[C@@]56CCCN5C[C@H](F)C6)nc4c3F)c12` was 2 nM; that for `CN1CCC[C@H]1COc1nc(N2CCN(C(=O)/C(F)=C/c3nccs3)[C@@H](CC#N)C2)c2ccc(-c3cc(O)cc4ccccc34)c(F)c2n1` was 16 nM. The value for `C#Cc1c(F)ccc2cc(O)cc(-c3ccc4c(N5CCN(C(=O)/C(F)=C/c6ccccn6)CC5)nc(OC[C@@]56CCCN(C)[C@]5(C)CCC6)nc4c3F)c12` was 6.4 nM; that for `CN1CCC[C@H]1COc1nc(N2CCN(C(=O)/C(F)=C/c3ncccn3)[C@@H](CC#N)C2)c2ccc(-c3cc(O)cc4ccccc34)c(F)c2n1` was 10 nM. Next, `N#CC[C@H]1CN(c2nc(OC[C@@]34CCCN3C[C@H](F)C4)nc3c(F)c(-c4cc(O)cc5ccccc45)ccc23)CCN1C(=O)/C(F)=C/c1ncccn1`: 11 nM.
